{"source": "patent US5344765A", "about": "“DNA encoding polypeptides with activity against gram-positive and gram-negative bacteria” (priority 1993, dated 1994)", "key": {"B. megaterium": {"tested_on": "B. megaterium", "assay": "halo (inhibition zone) agar assay of bactericidal activity", "type": "cell-based, Bacillus megaterium", "conditions": "for Relative activity: ratio of the radius of the cleared halo versus that for E. coli D21: B. megaterium, overnight incubation at 25° C.", "protocol": "(§1) The assay for antimicrobial activity was performed by pouring 10 ml of agar in TYE media containing about 10^7 viable cells of the test organisms. Wells, 2 mm in diameter, were punched in the agar plates. Aliquots of the modified cecropin-like polypeptides (2-12 ul) were then added to each well. The diameter of the inhibition zones, or haloes, around the wells, were measured after overnight incubation at 25° C.\n(§2) The activities of various cecropin-like polypeptides were tested against both Gram-negative and Gram-positive organisms. Anti-microbial activity against the Gram-negative organisms remained unaltered for most of the Gram-negative bacteria (except, i.e., Serratia marcescens) as shown in Table 1. […] To determine a standard of halo formation, the various modified cecropin-like polypeptides were also applied to E. coli D21. Activity shown in Tables 1 and 2 is expressed as the ratio of the radius of the cleared halo for each organism versus that for E. coli D21.\n(§3) The cecropin-like polypeptide modified at the carboxy terminus with ehtylenediamine and naturally occurring cecropin A were tested against a variety of organisms. The relative activities of the antimicrobial agents were expressed per nanomole of polypeptide applied to each well (Table 3)."}, "S. faecalis": {"tested_on": "S. faecalis", "assay": "halo (inhibition zone) agar assay of bactericidal activity", "type": "cell-based, Streptococcus faecalis", "protocol": "as §1, §2, §3"}, "Escherichia coli": {"tested_on": "Escherichia coli", "assay": "halo assay, activity per nanomole", "type": "cell-based", "conditions": "per nanomole of polypeptide applied to well", "protocol": "as §1, §3"}, "Bacillus megaterium": {"tested_on": "Bacillus megaterium", "conditions": "from the literature; cited from earlier work"}, "B. subtilis": {"tested_on": "B. subtilis", "assay": "halo (inhibition zone) agar assay of bactericidal activity", "type": "cell-based", "conditions": "Bacillus subtilus; per nanomole of polypeptide applied to well", "protocol": "as §1, §2, §3"}, "M. luteus": {"tested_on": "M. luteus", "assay": "halo (inhibition zone) agar assay of bactericidal activity", "type": "cell-based", "conditions": "Micrococcus luteus; per nanomole of polypeptide applied to well", "protocol": "as §1, §2, §3"}}, "note": "Square brackets hold non-standard residues; d marks the D form. Ends that are not written are not given here. Peptide text beside a SMILES is read from it. hSer = N[C@@H](CCO)C(=O)O"}
{"molecule": "CC[C@H](C)[C@H](NC(=O)CNC(=O)[C@H](CC(=O)O)NC(=O)[C@H](CCCNC(=N)N)NC(=O)[C@@H](NC(=O)[C@H](CC(N)=O)NC(=O)[C@H](CCC(N)=O)NC(=O)CNC(=O)[C@@H](NC(=O)[C@H](CCCCN)NC(=O)[C@H](CCC(=O)O)NC(=O)[C@@H](NC(=O)[C@H](CCCCN)NC(=O)[C@H](CCCCN)NC(=O)[C@H](Cc1ccccc1)NC(=O)[C@H](CC(C)C)NC(=O)[C@H](CCCCN)NC(=O)[C@H](Cc1c[nH]c2ccccc12)NC(=O)[C@@H](N)CCCCN)[C@@H](C)CC)C(C)C)[C@@H](C)CC)C(=O)N[C@H](C(=O)N[C@@H](CCCCN)C(=O)N[C@@H](C)C(=O)NCC(=O)N1CCC[C@H]1C(=O)N[C@@H](C)C(=O)N[C@H](C(=O)N[C@@H](C)C(=O)N[C@H](C(=O)N[C@H](C(=O)NCC(=O)N[C@@H](CCC(N)=O)C(=O)N[C@@H](C)C(=O)N[C@H](C(=O)N[C@@H](CCC(N)=O)C(=O)N[C@H](C(=O)N[C@@H](C)C(=O)N[C@@H](CCCCN)C(=O)N[C@@H](CCO)C(=O)O)[C@@H](C)CC)[C@@H](C)O)C(C)C)C(C)C)C(C)C)[C@@H](C)CC", "note": "[CA--HS--COOH] (H-KWKLFKKIEKVGQNIRDGIIKAGPAVAVVGQATQIAK[hSer]-OH)", "values": [{"measurement": "Relative activity: ratio of the radius of the cleared halo versus that for E. coli D21", "setting": "B. megaterium", "result": "0.5 ± 0.1"}]}
{"molecule": "CC[C@H](C)[C@H](NC(=O)CNC(=O)[C@H](CC(=O)O)NC(=O)[C@H](CCCNC(=N)N)NC(=O)[C@@H](NC(=O)[C@H](CC(N)=O)NC(=O)[C@H](CCC(N)=O)NC(=O)CNC(=O)[C@@H](NC(=O)[C@H](CCCCN)NC(=O)[C@H](CCC(=O)O)NC(=O)[C@@H](NC(=O)[C@H](CCCCN)NC(=O)[C@H](CCCCN)NC(=O)[C@H](Cc1ccccc1)NC(=O)[C@H](CC(C)C)NC(=O)[C@H](CCCCN)NC(=O)[C@H](Cc1c[nH]c2ccccc12)NC(=O)[C@@H](N)CCCCN)[C@@H](C)CC)C(C)C)[C@@H](C)CC)C(=O)N[C@H](C(=O)N[C@@H](CCCCN)C(=O)N[C@@H](C)C(=O)NCC(=O)N1CCC[C@H]1C(=O)N[C@@H](C)C(=O)N[C@H](C(=O)N[C@@H](C)C(=O)N[C@H](C(=O)N[C@H](C(=O)NCC(=O)N[C@@H](CCC(N)=O)C(=O)N[C@@H](C)C(=O)N[C@H](C(=O)N[C@@H](CCC(N)=O)C(=O)N[C@H](C(=O)N[C@@H](C)C(=O)N[C@@H](CCCCN)C(=O)N[C@@H](CCO)C(N)=O)[C@@H](C)CC)[C@@H](C)O)C(C)C)C(C)C)C(C)C)[C@@H](C)CC", "note": "[CA--HS--NH2] (H-KWKLFKKIEKVGQNIRDGIIKAGPAVAVVGQATQIAK[hSer]-NH2)", "values": [{"measurement": "Relative activity: ratio of the radius of the cleared halo versus that for E. coli D21", "setting": "S. faecalis; S. faecalis, overnight incubation at 25° C.", "result": 0}, {"measurement": "Relative activity: ratio of the radius of the cleared halo versus that for E. coli D21", "setting": "B. megaterium", "result": "0.4 ± 0.2"}]}
{"molecule": "KWKLFKKIEKVGQNIRDGIIKAGPAVAVVGQATQIAK [CA--COOH]", "values": [{"measurement": "Relative activity: ratio of the radius of the cleared halo versus that for E. coli D21", "setting": "B. megaterium", "result": "0.2 ± 0.08"}]}
{"molecule": "KWKLFKKIEKVGQNIRDGIIKAGPAVAVVGQATQIAK-NH2 [CA--NH2, cecropin A]", "values": [{"measurement": "Activity per Nanomole (radius of the inhibitory ring)", "setting": "S. faecalis; Streptococcus faecalis, per nanomole of polypeptide applied to well", "result": "< 0.5", "unit": "millimeters"}, {"measurement": "Activity per Nanomole (radius of the inhibitory ring)", "setting": "Escherichia coli", "result": 6.1, "unit": "millimeters"}, {"measurement": "Sensitivity of Bacillus megaterium to cecropin", "setting": "Bacillus megaterium", "result": "highly sensitive"}, {"measurement": "Relative activity: ratio of the radius of the cleared halo versus that for E. coli D21", "setting": "B. megaterium", "result": "0.7 ± 0.05"}, {"measurement": "Activity per Nanomole (radius of the inhibitory ring)", "setting": "B. megaterium; Bacillus megaterium, per nanomole of polypeptide applied to well", "result": 5.1, "unit": "millimeters"}, {"measurement": "Activity per Nanomole (radius of the inhibitory ring)", "setting": "B. subtilis", "result": "< 0.5", "unit": "millimeters"}, {"measurement": "Activity per Nanomole (radius of the inhibitory ring)", "setting": "M. luteus", "result": 6.1, "unit": "millimeters"}]}
{"molecule": "cecropin B (KWKVFKKIEKMGRNIRNGIVKAGPAIAVLGEAKAL; ends and bridges not checked; UniProt P01508 27-61, looked up) [natural antibacterial peptide purified from immune hemolymph]", "values": [{"measurement": "Sensitivity of Bacillus megaterium to cecropin", "setting": "Bacillus megaterium", "result": "highly sensitive"}]}
{"molecule": "cecropin D", "values": [{"measurement": "Sensitivity of Bacillus megaterium to cecropin", "setting": "Bacillus megaterium", "result": "relatively resistant"}]}
